Assay results from US7777033B2, “Monomer with anti-microbial character, polymer using the same, and manufacturing method thereof” (Micro Science Tech Co., Ltd., priority 2005, dated 2010).

Key:
[1] = system: S. aureus (KCTC 1621); assay: Strain reduction rate determination (shake flask method); format: cell-based; conditions: for Right After Inoculation (number of bacteria): 5 minutes after inoculation, 0.1 g powder or 2 ml stock solution; for After 24 hours (number of bacteria): 24 hours incubation with agitation; for Strain Reduction Rate: vs control after 24 hours
Method: (§1) The antimicrobial test was conducted by strain reduction rate determination (shake flask method). As the samples, 0.1 g of each of the compounds of Examples 9, 13, 15, and 18 to 23 was used in the form of powder, and in the case of Examples 28 to 31, 2 ml of their stock solution was used. The buffer solutions used in the antibacterial test were those prepared by dissolving each of 28.39 g of […] and 23.99 g of NaH2PO4 in 1000 ml of purified water, blending them in the volume of 72 ml and 28 ml respectively, adding 5 g of NaCl thereto, and then pouring purified water thereinto to adjust their total volume to 1000 ml. As the control, the same bacterial strains, to which no samples were added, were used. The samples were mixed with bacterial strain inocula (5.0×105), which were then incubated while agitating for 24 hours and then incubated on agar media. The reduction rate of strain number was determined by the following Equation 1. (Reduction Rate %)={(A−B)/A}×100 [Equation 1]
(§2) A: Number of Bacteria in Control after 24 Hours
(§3) B: Number of Bacteria in Sample after 24 Hours
(§4) In Table 6 above, “right after inoculation” refers to after 5 minutes from the time the bacterial strains were inoculated.

[2] = system: E. coli (KCTC 1682); assay: as above; format: cell-based; conditions: for Right After Inoculation (number of bacteria): 5 minutes after inoculation, 0.1 g powder or 2 ml stock solution; for After 24 hours (number of bacteria): 24 hours incubation with agitation; for Strain Reduction Rate: vs control after 24 hours
Method: as §1, §2, §3, §4

[3] = Light stability test (colour change over 3 months); format: physicochemical; conditions: for Discoloration: installed in the place where light was shut off
Text: The antimicrobial monomers manufactured in Examples 9 and 10 and the antimicrobial acrylic copolymers manufactured in Examples 17 to 23 were used as samples. 3 g of each sample were respectively put in lucid glass test tubes, which were then placed under a direct ray of light. Also, according to the same method, the samples were collected in lucid glass test tubes which were then sealed with aluminum foil and installed in a place where indoor light was shut off.

Row | Colour, Four Weeks Later ([3]; Direct Ray of Light) | Colour, Initial ([3]; Direct Ray of Light) | Colour, Ten Weeks Later ([3]; Direct Ray of Light) | Colour, Twelve Weeks Later ([3]; Direct Ray of Light) | Colour, Two Weeks Later ([3]; Direct Ray of Light) | Colour, Eight Weeks Later ([3]; Light Shut Off) | Colour, Four Weeks Later ([3]; Light Shut Off) | Colour, Initial ([3]; Light Shut Off) | Colour, Six Weeks Later ([3]; Light Shut Off) | Colour, Ten Weeks Later ([3]; Light Shut Off) | Colour, Twelve Weeks Later ([3]; Light Shut Off) | Colour, Two Weeks Later ([3]; Light Shut Off) | Discoloration [3] | SMILES | Right After Inoculation (number of bacteria) [1] | After 24 hours (number of bacteria) [1] | Strain Reduction Rate [1] | Right After Inoculation (number of bacteria) [2] | After 24 hours (number of bacteria) [2] | Strain Reduction Rate [2]
1 | orange | white | brown | brown | yellow | white | white | white | white | white | white | white | not discolored | C=C(C)C(=O)OCC(O)CN1CCN(c2cc3c(cc2F)c(=O)c(C(=O)O)cn3C2CC2)CC1 (centres unmarked) [Example 9, 1-cyclopropyl-6-fluoro-1,4-dihydro-7-[4-(2-hydroxy-6-methyl-4-oxa-5-oxo-6-heptenyl)-1-piperazinyl]-4-oxo-3-quinoline carboxylic acid] | not detected | not detected | 100% | not detected | not detected | 100%
2 | orange | white | brown | brown | yellow | white | white | white | white | white | white | white | not discolored | C=C(C)C(=O)OCC(O)CN1CCN(c2cc3c(cc2F)c(=O)c(C(=O)O)cn3CC)CC1 (centres unmarked) [Example 10, 1-ethyl-6-fluoro-1,4-dihydro-7-[4-(2-hydroxy-6-methyl-4-oxa-5-oxo-6-heptenyl)-1-piperazinyl]-4-oxo-3-quinoline carboxylic acid] | – | – | – | – | – | –
3 | – | – | – | – | – | – | – | – | – | – | – | – | – | C=C(C)C(=O)N1CCN(c2cc3c(cc2F)c(=O)c(C(=O)O)cn3C2CC2)CC1 [Example 13, 1-cyclopropyl-6-fluoro-1,4-dihydro-7-[4-(2-methyl-1-oxo-2-propenyl)-1-piperazinyl]-4-oxo-3-quinoline carboxylic acid] | not detected | not detected | 100% | not detected | not detected | 100%
